Where two headings read alike, the source gives them in different places.
Assays:
E. coli MurC = E. coli MurC (Escherichia coli, UniProt P17952); experiment: MurC inhibition assay (Malachite green); assay type: biochemical; conditions: 0.25 h, read-out: RA (%) @ 100 µM MurC
Method: (§1) Inhibition of the Mur ligases was determined using the Malachite green assay, with slight modifications. […] In all cases, the final concentration of DMSO was 5% (v/v).
(§2) After incubation for 15 min at 37 °C, the enzyme reaction was terminated by the addition of 100 µM Biomol green reagent®, and the absorbance was measured at 650 nm after 5 min. Experiments to determine the RA run in triplicate. Residual activities were calculated with respect to control assays without the tested compounds, but with the 5% DMSO carrier. The IC50 values were determined by measuring the residual activities at seven different compound concentrations, and they represent the concentration of the compound at which the residual activity was 50%. IC50 values were obtained by plotting the residual enzyme activities against the applied inhibitor concentrations, fitting the experimental data to the 4-parameter Hill equation: Y=Bottom-Top-Bottom/1+10^logIC50-X×HillSlope , where X is the logarithm of the inhibitor concentration, and Y is the residual activity. The IC50 values were determined in three independent experiments. GraphPad Prism 8.2.0 (GraphPad Software, San Diego, CA, USA) was used for the fitting procedure.
(§3) The assay detects the phosphate formed in each enzyme reaction. To avoid any possibility of the compounds inhibiting the enzymes due to aggregation, a detergent (0.005% Triton-X114) was added to the test system.

E. coli MurD = E. coli MurD (Escherichia coli, UniProt P14900); experiment: MurD inhibition assay (Malachite green); assay type: biochemical; conditions: 0.25 h, read-out: RA (%) @ 100 µM MurD
Method: as §1, §2, §3

E. coli MurE = E. coli MurE (Escherichia coli, UniProt P22188); experiment: MurE inhibition assay (Malachite green); assay type: biochemical; conditions: 0.25 h, read-out: RA (%) @ 100 µM MurE
Method: as §1, §2, §3

E. coli MurF = E. coli MurF (Escherichia coli, UniProt P11880); experiment: MurF inhibition assay (Malachite green); assay type: biochemical; conditions: for remaining activity at 100 µM: 0.25 h, residual activity at 100 µM compound, mean ± SD of three independent experiments, read-out: RA (%) @ 100 µM MurF; for IC50: seven compound concentrations, 4-parameter Hill fit, three independent experiments
Method: as §1, §2, §3

E. coli (ATCC 25,922) = experiment: Antibacterial assay, broth microdilution MIC; assay type: cell-based; conditions: for MIC: Escherichia coli
Method: (§4) Antimicrobial testing was performed by the broth microdilution method in 96-well plates following the Clinical and Laboratory Standards Institute guidelines and European Committee on Antimicrobial Susceptibility Testing recommendations (Clinical and Laboratory Standards Institute). Bacterial suspensions equivalent to 0.5 McFarland turbidity standard were diluted with cation-adjusted Mueller–Hinton broth with TES buffering (ThermoFisher Scientific), for a final inoculum of 10^5 CFU/ mL. Compounds dissolved in DMSO and the inoculum were mixed and incubated for 20 h at 35 °C. […] The MICs were determined against two reference bacterial strains, S. aureus (ATCC 29,213) and E. coli (ATCC 25,922). Tetracycline was used as the positive control on every assay plate, with MICs of 0.5 and 1 µg/mL for S. aureus and E. coli, respectively. All MICs were determined in three independent experiments.

S. aureus (ATCC 29,213) = experiment: Antibacterial assay, broth microdilution MIC; assay type: cell-based; conditions: for MIC: Staphylococcus aureus
Method: as §4

[1] = residual activity at 100 µM compound, mean ± SD of three independent experiments
[2] = ATCC25, broth microdilution, 20 h at 35 °C, read-out: MIC E.coli
[3] = ATCC29, broth microdilution, 20 h at 35 °C, read-out: MIC S.aureus
[4] = ATCC25, 20 h, read-out: MIC E.coli
[5] = ATCC29, 20 h, read-out: MIC S.aureus

Chain of E. coli MurD (P14900 whole entry): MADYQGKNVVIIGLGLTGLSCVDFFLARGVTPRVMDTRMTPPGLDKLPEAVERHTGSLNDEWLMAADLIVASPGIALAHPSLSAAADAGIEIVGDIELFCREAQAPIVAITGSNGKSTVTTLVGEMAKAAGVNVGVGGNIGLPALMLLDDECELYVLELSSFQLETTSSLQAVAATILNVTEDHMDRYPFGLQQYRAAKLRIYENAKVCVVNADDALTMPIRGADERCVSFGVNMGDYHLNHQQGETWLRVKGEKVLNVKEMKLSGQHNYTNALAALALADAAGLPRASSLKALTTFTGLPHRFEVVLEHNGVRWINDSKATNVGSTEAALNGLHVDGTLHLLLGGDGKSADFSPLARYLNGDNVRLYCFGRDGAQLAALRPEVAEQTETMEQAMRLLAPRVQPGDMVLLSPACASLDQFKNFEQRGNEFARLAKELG
Chain of E. coli MurE (P22188 whole entry): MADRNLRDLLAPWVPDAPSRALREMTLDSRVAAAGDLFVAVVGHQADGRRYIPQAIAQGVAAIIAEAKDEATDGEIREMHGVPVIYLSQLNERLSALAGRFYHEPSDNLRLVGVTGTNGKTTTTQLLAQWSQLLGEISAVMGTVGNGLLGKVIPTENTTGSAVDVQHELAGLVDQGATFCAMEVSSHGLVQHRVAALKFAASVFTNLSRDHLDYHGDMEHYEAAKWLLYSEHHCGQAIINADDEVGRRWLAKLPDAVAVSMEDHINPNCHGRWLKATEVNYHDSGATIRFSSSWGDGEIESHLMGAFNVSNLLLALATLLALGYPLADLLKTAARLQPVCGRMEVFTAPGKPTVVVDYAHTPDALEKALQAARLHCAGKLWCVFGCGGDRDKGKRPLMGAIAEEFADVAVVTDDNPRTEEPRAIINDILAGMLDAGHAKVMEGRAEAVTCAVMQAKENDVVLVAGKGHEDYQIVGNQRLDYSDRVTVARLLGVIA
Chain of E. coli MurF (P11880 whole entry): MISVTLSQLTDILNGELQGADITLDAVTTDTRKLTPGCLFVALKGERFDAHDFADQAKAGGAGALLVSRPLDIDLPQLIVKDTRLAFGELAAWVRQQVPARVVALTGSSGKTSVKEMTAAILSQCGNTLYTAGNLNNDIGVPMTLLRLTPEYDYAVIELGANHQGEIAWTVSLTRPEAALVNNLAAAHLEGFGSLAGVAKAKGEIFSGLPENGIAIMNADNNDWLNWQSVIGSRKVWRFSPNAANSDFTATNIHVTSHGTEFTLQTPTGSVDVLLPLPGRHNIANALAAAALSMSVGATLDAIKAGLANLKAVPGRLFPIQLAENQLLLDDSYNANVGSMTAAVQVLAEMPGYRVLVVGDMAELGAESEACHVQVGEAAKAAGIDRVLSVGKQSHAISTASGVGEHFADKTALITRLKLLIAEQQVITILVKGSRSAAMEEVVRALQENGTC
Chain of E. coli MurC (P17952 whole entry): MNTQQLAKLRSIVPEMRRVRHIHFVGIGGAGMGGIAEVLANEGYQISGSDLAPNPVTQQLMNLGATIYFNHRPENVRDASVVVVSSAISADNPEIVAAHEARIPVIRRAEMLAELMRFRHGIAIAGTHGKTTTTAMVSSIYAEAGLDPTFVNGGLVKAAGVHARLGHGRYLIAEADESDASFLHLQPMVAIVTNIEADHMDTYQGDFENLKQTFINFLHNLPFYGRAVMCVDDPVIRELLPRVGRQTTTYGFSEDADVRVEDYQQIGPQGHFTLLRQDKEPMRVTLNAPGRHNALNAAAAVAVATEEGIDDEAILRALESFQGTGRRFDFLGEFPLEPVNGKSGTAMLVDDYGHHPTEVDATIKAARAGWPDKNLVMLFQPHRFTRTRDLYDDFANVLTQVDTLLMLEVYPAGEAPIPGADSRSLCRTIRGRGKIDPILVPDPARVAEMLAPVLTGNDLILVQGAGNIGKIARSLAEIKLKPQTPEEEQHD

SMILES | remaining activity at 100 µM (E. coli MurC; [1]) [%] | remaining activity at 100 µM (E. coli MurD; [1]) [%] | remaining activity at 100 µM (E. coli MurE; [1]) [%] | remaining activity at 100 µM (E. coli MurF) [%] | MIC (E. coli (ATCC 25,922); [2]) [µM] | MIC (S. aureus (ATCC 29,213); [3]) [µM] | remaining activity at 100 µM (E. coli MurC) [%] | remaining activity at 100 µM (E. coli MurD) [%] | remaining activity at 100 µM (E. coli MurE) [%] | Inhibition of growth of S. aureus (in words) (S. aureus (ATCC 29,213); broth microdilution) | IC50 (E. coli MurF) [µM] | Inhibition of growth of E. coli (in words) (E. coli (ATCC 25,922); broth microdilution) | MIC (E. coli (ATCC 25,922); [4]) [µM] | MIC (S. aureus (ATCC 29,213); [5]) [µM] | MIC (S. aureus (ATCC 29,213); ATCC29, broth microdilution, 20 h at 35 °C, read-out: MIC S. aureus) [µM] | MIC (E. coli (ATCC 25,922); ATCC25, positive control on every assay plate, read-out: MIC E. coli, positive control) [µg/mL] | MIC (S. aureus (ATCC 29,213); ATCC29, positive control on every assay plate, read-out: MIC S. aureus, positive control) [µg/mL]
Cc1c(O)cc(O)c2c1O[C@H](c1ccccc1)CC2=O [Compound 4] | 91 ± 9 | 97 ± 8 | 100 ± 9 | 88 ± 9 | > 250 | > 250 | – | – | – | – | – | – | – | – | – | – | –
Oc1cc(O)c2c(c1)O[C@H](c1ccc(O)c(O)c1)[C@@H](O)C2 [Compound 22, (+)-catechin] | 100 ± 10 | 93 ± 8 | 88 ± 8 | 100 ± 10 | > 250 | > 250 | – | – | – | – | – | – | – | – | – | – | –
O=c1c(O)c(-c2ccc(O)c(O)c2)oc2cc(O)cc(O)c12 [Compound 14, Quercetin] | – | – | – | – | > 250 | 250 | 41 ± 5 | 43 ± 6 | 28 ± 4 | inhibit the growth | – | – | – | – | – | – | –
COc1ccc([C@@H]2CC(=O)c3c(O)cc(O)cc3O2)cc1O [Compound 1] | 100 ± 9 | 94 ± 9 | 100 ± 10 | 87 ± 8 | > 250 | > 250 | – | – | – | – | – | – | – | – | – | – | –
O=c1cc(-c2ccc(O)c(O)c2)oc2cc(OC3OC(CO)C(O)C(O)C3O)cc(O)c12 (centres unmarked) [Compound 15] | 100 ± 9 | 75 ± 6 | 100 | 92 ± 9 | > 250 | > 250 | – | – | – | – | – | – | – | – | – | – | –
CC1OC(Oc2c(-c3cc(O)c(O)c(O)c3)oc3cc(O)cc(O)c3c2=O)C(O)C(O)C1O (centres unmarked) [Compound 11] | 97 ± 7 | 89 ± 7 | 100 ± 10 | 86 ± 9 | > 250 | > 250 | – | – | – | – | – | – | – | – | – | – | –
CC1OC(OCC2OC(Oc3c(-c4ccc(O)c(O)c4)oc4cc(O)cc(O)c4c3=O)C(O)C(O)C2O)C(O)C(O)C1O (centres unmarked) [Compound 7] | 100 ± 10 | 97 ± 9 | 100 ± 10 | 89 ± 10 | > 250 | > 250 | – | – | – | – | – | – | – | – | – | – | –
O=c1c(O[C@@H]2O[C@H](CO)[C@@H](O)[C@H](O)[C@H]2O)c(-c2ccc(O)c(O)c2)oc2cc(O)cc(O)c12 [Compound 8] | 95 ± 9 | 100 ± 9 | 97 ± 8 | 88 ± 9 | > 250 | > 250 | – | – | – | – | – | – | – | – | – | – | –
O=c1c(O)c(-c2ccccc2)oc2cc(O)cc(O)c12 [Compound 16] | 100 ± 8 | 91 ± 7 | 100 ± 10 | 100 ± 10 | > 250 | 250 | – | – | – | inhibit the growth | – | – | – | – | – | – | –
O=c1c(O)c(-c2cc(O)c(O)c(O)c2)oc2cc(O)cc(O)c12 [Compound 12, myricetin] | 87 ± 8 | 87 ± 9 | 66 ± 7 | – | > 250 | > 250 | – | – | – | inactive | 139 ± 13 | inactive | – | – | – | – | –
C[C@@H]1O[C@@H](Oc2c(-c3ccc(O)c(O)c3)oc3cc(O)cc(O)c3c2=O)[C@H](O)[C@H](O)[C@H]1O [Compound 10, quercitrin] | 98 ± 10 | 77 ± 9 | 98 ± 9 | – | – | – | – | – | – | inactive | 143 ± 18 | inactive | > 250 | > 250 | – | – | –
COc1cc([C@@H]2[C@H]3CO[C@@]4(O)C(=O)[C@@H]2C=C([C@H]2Oc5cc(O)cc(O)c5C(=O)[C@@H]2O)[C@@H]34)ccc1O [Compound 24, silydianin] | 100 ± 7 | 95 ± 9 | 93 ± 9 | 99 ± 7 | > 250 | > 250 | – | – | – | – | – | – | – | – | – | – | –
COc1cc(OC)c2c(=O)cc(-c3ccc(OC)c(OC)c3)oc2c1 [Compound 19] | 100 ± 9 | 100 ± 10 | 100 ± 9 | 100 ± 9 | – | – | – | – | – | – | – | – | > 250 | > 250 | – | – | –
O=c1c(OC2OC(CO)C(O)C(O)C2O)c(-c2ccc(O)c(O)c2)oc2cc(O)cc(O)c12 (centres unmarked) [Compound 9] | 89 ± 8 | 100 ± 8 | 100 ± 8 | 90 ± 8 | > 250 | > 250 | – | – | – | – | – | – | – | – | – | – | –
COc1cc(O)c(CC=C(C)C)c(O)c1C(=O)/C=C/c1ccc(O)cc1 [Compound 23, xanthohumol] | 86 ± 8 | 91 ± 10 | 82 ± 7 | 72 ± 8 | > 250 | 31 | – | – | – | inhibit the growth | – | – | – | – | 31 | – | –
O=c1cc(-c2ccccc2)oc2cc(O)cc(O)c12 [Compound 17] | 100 ± 10 | 71 ± 9 | 83 ± 8 | 100 ± 8 | > 250 | > 250 | – | – | – | – | – | – | – | – | – | – | –
COc1cc(O)c(CC=C(C)C)c2c1C(=O)C[C@@H](c1ccc(O)cc1)O2 [Compound 2] | 86 ± 8 | 100 ± 10 | 77 ± 7 | 78 ± 9 | > 250 | 250 | – | – | – | inhibit the growth | – | – | – | – | – | – | –
COc1cc(O)c2c(=O)c(O)c(-c3ccc(O)c(O)c3)oc2c1 [Compound 13] | 66 ± 7 | 71 ± 8 | 82 ± 8 | 51 ± 6 | > 250 | > 250 | – | – | – | – | – | – | – | – | – | – | –
O=C1C[C@@H](c2ccc(O)cc2)Oc2cc(O)cc(O)c21 [Compound 5] | 97 ± 8 | 100 ± 9 | 98 ± 9 | 87 ± 9 | > 250 | > 250 | – | – | – | – | – | – | – | – | – | – | –
CC(C)=CCc1c(O)cc(O)c2c1O[C@H](c1ccc(O)cc1)CC2=O [Compound 3] | 95 ± 10 | 100 ± 8 | 87 ± 9 | 71 ± 7 | > 250 | 62 | – | – | – | inhibit the growth | – | – | – | – | – | – | –
CN(C)[C@@H]1C(O)=C(C(N)=O)C(=O)[C@@]2(O)C(O)=C3C(=O)c4c(O)cccc4[C@@](C)(O)[C@H]3C[C@@H]12 [Tetracycline, reference compound] | – | – | – | – | – | – | – | – | – | – | – | – | – | – | – | 1 | 0.5
